Experimental data taken from US7566787B2, “Small molecule cyclin D1 ablative agents” (The Ohio State University, priority 2004, dated 2009).
Peptide text beside a SMILES is read from it. * marks the point of attachment. Cbz = O=C(OCc1ccccc1)*

Key:
MCF-7 cells = test: MTT cell viability assay; assay type: cell-based; conditions: Homo sapiens, MCF7, cell viability data, read-out: IC50 for MTT
Experimental: Cell viability analysis. The effect of individual test agents on cell viability was assessed by using the MTT [3-(4,5-dimethylthiazol-2-yl)-2,5-diphenyl-2H-tetrazolium bromide] assay in six replicates. Cells were seeded and incubated in 96-well, flat-bottomed plates in DMEM-F12 media with 10% FBS for 24 h, and were exposed to various concentrations of test agents dissolved in DMSO (final DMSO concentration, 0.1%) in 5% FBS-supplemented DMEM-F12 medium. Controls received DMSO vehicle at a concentration equal to that of drug-treated cells. The medium was removed, replaced by 200 μl of 0.5 mg/ml of MTT in 10% FBS-containing RPMI-1640 medium, and cells were incubated in the CO2 incubator at 37° C. for 2 h. Supernatants were removed from the wells, and the reduced MTT dye was solubilized in 200 μl/well DMSO. Absorbance at 570 nm was determined on a plate reader.

cyclin D1 = test: Western blot analysis of cyclin D1 expression in MCF-7 cells; assay type: cell-based, human; conditions: for IC50: western blot data, read-out: IC50 for WB; for minimum concentration required for the complete ablation of cyclin D1 / effect of co-treatment on TG- and Δ2-TG-induced cyclin D1 ablation: 24 h; for minimum concentration required for the complete ablation of cyclin D1: 5% FBS; for effect of co-treatment on TG- and Δ2-TG-induced cyclin D1 ablation: with 40 μM TG or 30 μM Δ2-TG
Experimental: Western Blot Analysis. MCF-7 or MDA-MB-231 cells were seeded in 10% FBS-containing DMEM-F-12 for 24 h and treated with various agents as indicated. After individual treatments for 24 h, both the incubation medium and adherent cells in T-25 or T-75 flasks were scraped and collected by centrifugation at 2,000×g for 10 min. The pellets were recovered, placed on ice, and triturated with 20 to 50 μl of a chilled lysis buffer (M-PER® Mammalian Protein Extraction Reagent, Pierce, Rockford, Ill.) to which was added 1% protease inhibitor cocktail (set III, EMD Biosciences, Inc. San Diego, Calif.). After a 30 min-incubation on ice, the mixture was centrifuge at 16,100×g for 3 min. Two μl of the suspension was taken for protein analysis using the Bradford assay kit (Bio-Rad, Hercules, Calif.). To the remaining solution was added the same volume of 2× SDS-PAGE sample loading buffer (100 mM Tris-HCl, pH 6.8, 4% SDS, 5% β-mercaptoethanol 20% glycerol, and 0.1% bromophenol blue). The mixture was boiled for 10 min. Equal amounts of proteins were loaded onto 10% SDS-PAGE gels. After electrophoresis, protein bands were transferred to nitrocellulose membranes in a semi-dry transfer cell. The transblotted membrane was blocking with TBST [Tris-buffered saline (TBS) containing 0.1% Tween 20] containing 5% nonfat milk for 90 min, and the membrane was incubated with the appropriate primary antibody in TBST-5% nonfat milk at 4° C. overnight. After washing three times with TBST for a total of 45 min, the transblotted membrane was incubated with goat anti-rabbit or anti-mouse IgG-horseradish peroxidase conjugates (diluted 1:1000) for 1 h at room temperature and washed four times with TBST for a total of 1 h. The immunoblots were visualized by enhanced chemiluminescence.

IC50 (MCF-7 cells) [µM] | IC50 (cyclin D1) [µM] | SMILES | further results
10.5 | – | C=CCOc1c(C)c(C)c2c(c1C)CCC(C)(COc1c(C)cc(/C=C3\SC(=O)NC3=O)cc1C)O2 (stereo not drawn) [TG-52] | –
12.5 | – | CC(C)=CCOc1c(C)c(C)c2c(c1C)CCC(C)(COc1ccc(/C=C3\SC(=O)NC3=O)cc1F)O2 (stereo not drawn) [TG-30] | –
37 | – | O=C1NC(=O)/C(=C/c2ccc(OCC3CCc4ccccc4C3)cc2)S1 (stereo not drawn) [TG-15] | –
34 | > 7.5 | CC(C)=CCOc1c(C)c(C)c2c(c1C)CCC(C)(COc1ccc(/C=C/C(=O)O)cc1Br)O2 (stereo not drawn) [TG-37] | –
38 | – | CC(C)=CCOc1c(C)c(C)c2c(c1C)CCC(C)(COc1ccc(/C=C3\SC(=O)NC3=O)cc1[N+](=O)[O-])O2 (stereo not drawn) [TG-35] | –
> 50 | > 7.5 | C=CCOc1c(C)c(C)c2c(c1C)CCC(C)(COc1ccc(/C=C3\SC(=O)N(CC(=O)OC)C3=O)cc1)O2 (stereo not drawn) [TG-9] | –
19.5 | > 7.5 | CC(C)=CCOc1c(C)c(C)c2c(c1C)CCC(C)(COc1ccc(/C=C3\SC(=O)NC3=O)cc1-c1ccc(F)cc1)O2 (stereo not drawn) [TG-32] | –
> 50 | – | CCOC(=O)C(C)(C)C(O)c1ccc(OCC2(C)CCc3c(C)c(OCC=C(C)C)c(C)c(C)c3O2)c(Br)c1 (stereo not drawn) [TG-38] | –
40 | – | C=CCOc1c(C)c(C)c2c(c1C)CCC(C)(COc1cccc(/C=C3\SC(=O)NC3=O)c1)O2 (stereo not drawn) [TG-51] | –
– | – | Cc1c(C)c2c(c(C)c1O)CCC(C)(COc1ccc(CC3SC(=O)NC3=O)cc1)O2 (stereo not drawn) [TG, troglitazone, reference compound] | time of complete ablation of cyclin D1 (cyclin D1; 40 μM TG, 30 μM Δ2-TG): 24 h; minimum concentration required for the complete ablation of cyclin D1 (cyclin D1): 40 µM
14.5 | – | CC(C)=CCOc1c(C)c(C)c2c(c1C)CCC(C)(COc1ccc(/C=C3\SC(=O)NC3=O)cc1C)O2 (stereo not drawn) [TG-17] | –
16.7 | – | Cc1c(C)c2c(c(C)c1OCc1ccccc1)CCC(C)(COc1ccc(/C=C3\SC(=O)NC3=O)cc1)O2 (stereo not drawn) [TG-12] | –
15.5 | – | CC(C)=CCOc1c(C)c(C)c2c(c1C)CCC(C)(COc1c(Br)cc(/C=C3\SC(=O)NC3=O)cc1Br)O2 (stereo not drawn) [TG-34] | –
– | – | Cn1cc(C2=C(c3ccc(Cl)cc3Cl)C(=O)NC2=O)c2ccccc21 [SB216763, reference compound] | effect of co-treatment on TG- and Δ2-TG-induced cyclin D1 ablation (cyclin D1): could not rescue
14.5 | – | C=CCOc1c(C)c(C)c2c(c1C)CCC(C)(COc1ccc(/C=C3\SC(=O)NC3=O)cc1OC)O2 (stereo not drawn) [TG-28] | –
> 50 | > 7.5 | CC(C)=CCOc1c(C)c(C)c2c(c1C)CCC(C)(COc1ccc(C=C(C#N)C#N)cc1Br)O2 (stereo not drawn) [TG-36] | –
11 | 3.5 | C=CCOc1c(C)c(C)c2c(c1C)CCC(C)(COc1ccc(/C=C3\SC(=S)NC3=O)cc1)O2 (stereo not drawn) [TG-3] | –
– | – | CC[C@H](C)[C@H](NC(=O)[C@H]([C@@H](C)CC)N(C)C(C)=O)C(=O)N[C@H](C(=O)N[C@@H](CC(C)C)C(=O)[C@@]1(C)CO1)[C@@H](C)O [epoxomicin, reference compound] | effect of co-treatment on TG- and Δ2-TG-induced cyclin D1 ablation (cyclin D1): effective in rescuing
14.5 | – | CC(C)=CCOc1c(C)c(C)c2c(c1C)CCC(C)(COc1ccc(/C=C3\SC(=O)NC3=O)c3ccccc13)O2 (stereo not drawn) [TG-43] | –
46 | > 7.5 | CC(C)=CCOc1c(C)c(C)c2c(c1C)CCC(C)(COc1ccc(C(O)C(C)(C)C(=O)O)cc1Br)O2 (stereo not drawn) [TG-39] | –
14.5 | – | C=CCOc1c(C)c(C)c2c(c1C)CCC(C)(COc1ccc(/C=C3\SC(=O)NC3=O)c3ccccc13)O2 (stereo not drawn) [TG-53] | –

IC50 (MCF-7 cells) [µM] | IC50 (cyclin D1) [µM] | SMILES | further results
> 50 | > 7.5 | CC(C)=CCOc1c(C)c(C)c2c(c1C)CCC(C)(COc1ccc(C=C(C(=O)O)C(=O)O)cc1Br)O2 (stereo not drawn) [TG-42] | –
17 | > 7.5 | C=CCOc1c(C)c(C)c2c(c1C)CCC(C)(COc1ccc(/C=C3\SC(=O)NC3=O)cc1OCC)O2 (stereo not drawn) [TG-55] | –
> 50 | > 7.5 | CCc1ccc(-c2cc(/C=C3\SC(=O)NC3=O)ccc2OCC2(C)CCc3c(C)c(OCC=C(C)C)c(C)c(C)c3O2)cc1 (stereo not drawn) [TG-33] | –
17.5 | – | C=CCOc1c(C)c(C)c2c(c1C)CCC(C)(COc1c(Br)cc(/C=C3\SC(=O)NC3=O)cc1OC)O2 (stereo not drawn) [TG-54] | –
19 | > 7.5 | Cc1c(C)c2c(c(C)c1OC/C=C/c1ccccc1)CCC(C)(COc1ccc(/C=C3\SC(=O)NC3=O)cc1)O2 (stereo not drawn) [TG-10] | –
28 | > 7.5 | C=CCOc1c(C)c(C)c2c(c1C)CCC(C)(COc1ccc(/C=C3\SC(=O)NC3=O)cc1Br)O2 (stereo not drawn) [TG-27] | –
28.5 | > 7.5 | Cc1c(C)c2c(c(C)c1OC/C=C/c1ccccc1)CCC(C)(COc1ccc(/C=C3\SC(=O)NC3=O)cc1Br)O2 (stereo not drawn) [TG-11] | –
13 | – | CCOc1cc(/C=C2\SC(=O)NC2=O)ccc1OCC1(C)CCc2c(C)c(OCC=C(C)C)c(C)c(C)c2O1 (stereo not drawn) [TG-45] | –
> 50 | > 7.5 | CC(C)=CCOc1c(C)c(C)c2c(c1C)CCC(C)(COc1ccc(/C=C3\SC(=O)NC3=O)cc1-c1ccc(C(F)(F)F)cc1)O2 (stereo not drawn) [TG-31] | –
15 | – | COc1cc(/C=C2\SC(=O)NC2=O)ccc1OCC1(C)CCc2c(C)c(OCC=C(C)C)c(C)c(C)c2O1 (stereo not drawn) [TG-16] | –
– | – | CC(C)C[C@@H](C=O)NC(=O)[C@H](CC(C)C)NC(=O)[C@H](CC(C)C)NC(=O)OCc1ccccc1 [MG132, reference compound] (Cbz-Leu-Leu-Leu-aldehyde) | effect of co-treatment on Δ2-TG-6 cyclin D1 ablation (cyclin D1; FIG. 8C): could be blocked; effect of co-treatment on TG- and Δ2-TG-induced cyclin D1 ablation (cyclin D1): effective in rescuing
14.5 | > 7.5 | COc1cc(/C=C2\SC(=O)NC2=O)cc(Br)c1OCC1(C)CCc2c(C)c(OCC=C(C)C)c(C)c(C)c2O1 (stereo not drawn) [TG-44] | –
37.3 | – | CC(C)=CCOc1c(C)c(C)c2c(c1C)CCC(C)(COc1ccc(/C=C3\SC(=S)NC3=O)c3ccccc13)O2 (stereo not drawn) [TG-46] | –
– | – | CC1(COc2ccc(CC3SC(=O)NC3=O)cc2)CCCCC1 (stereo not drawn) [CG, ciglitazone, reference compound] | minimum concentration required for the complete ablation of cyclin D1 (cyclin D1): 50 µM
23.5 | – | C=CCOc1c(C)c(C)c2c(c1C)CCC(C)(COc1ccc(/C=C3\SC(=O)NC3=O)cc1C)O2 (stereo not drawn) [TG-29] | –
14.5 | 7 | CC(C)=CCOc1c(C)c(C)c2c(c1C)CCC(C)(COc1ccc(/C=C3\SC(=O)NC3=O)cc1)O2 (stereo not drawn) [TG-14] | –
– | – | O=C(Nc1ccccc1)c1cc([N+](=O)[O-])ccc1Cl [GW9962, reference compound] | effect of co-treatment on TG-mediated cyclin D1 down-regulation (cyclin D1; concentrations three orders of magnitude higher than the IC50 in PPARγ binding): did not prevent; effect on cyclin D1 expression (cyclin D1; high doses / comparable concentrations): no appreciable effect
> 50 | > 7.5 | Cc1c(C)c2c(c(C)c1OC(=O)CCC(=O)O)CCC(C)(COc1ccc(/C=C3\SC(=O)NC3=O)cc1)O2 (stereo not drawn) [TG-13] | –
14.5 | > 7.5 | CC(C)=CCOc1c(C)c(C)c2c(c1C)CCC(C)(COc1ccc(/C=C3\SC(=O)NC3=O)cc1Br)O2 (stereo not drawn) [TG-88] | –
– | – | CC(=O)N[C@@H](CSC(=O)[C@]1([C@@H](O)C(C)C)NC(=O)[C@H](C)[C@@H]1O)C(=O)O [lactacystin, reference compound] | effect of co-treatment on TG- and Δ2-TG-induced cyclin D1 ablation (cyclin D1): effective in rescuing
> 50 | > 7.5 | CCOC(=O)C(=Cc1ccc(OCC2(C)CCc3c(C)c(OCC=C(C)C)c(C)c(C)c3O2)c(Br)c1)C(=O)OCC (stereo not drawn) [TG-41] | –
